Results on four molecules are retold here after US9636338B2, “Phenyl-dihydropyridine derivatives as inhibitors of aldosterone synthase” (Hoffmann-La Roche Inc., priority 2013, dated 2017).

For orientation: EC50 means the concentration needed to bring the measured effect to its halfway point. Read a high EC50 as weaker potency.

In one assay the target is human CYP11B1 (Homo sapiens (Human), UniProt P15538). The assay can be described thus: G-402 cellular enzyme assay, human CYP11B1 (cortisol release, HTRF). The assay is classed as cell-based. The following applies: G-402 cells expressing human CYP11B1; 1 μM Deoxycortisol. The text has this: (§1) Herein we identified the use of the G-402 cell line as a host cell to ectopically express (transiently or stably) enzymes of the CYP11 family. Specifically we developed stable G-402 cells expressing ectopically human CYP11B1, human CYP11B2, human CYP11A1, cynmolgus CYP11B1 or cynomolgus CYP11B2 enzyme activity. Importantly the identified cell line G-402 expresses co-factors (adrenodoxin and adrenodoxin reductase) important for the activity of the CYP11 family and no relevant enzyme activity of the CYP11 family (in comparison to H295R cells) was detected in these cells. Therefore the G-402 cell line is uniquely suited as a host cell for the ectopic expression of enzymes from the CYP11 family. G-402 cells can be obtained from ATCC (CRL-1440) and were originally derived from a renal leiomyoblastoma.
(§2) The expression plasmids contains the ORF for either human/cyno CYP11B1 or CYP11B2 under the control of a suitable promoter (CMV-promoter) and a suitable resistance marker (neomycin). Using standard techniques the expression plasmid is transfected into G-402 cells and these cells are then selected for expressing the given resistance markers. Individual cell-clones are then selected and assessed for displaying the desired enzymatic activity using 11-Deoxycorticosterone (Cyp11B2) or 11-Deoxycortisol (Cyp11B1) as a substrate.
(§3) G-402 cells expressing CYP11 constructs were established as described above and maintained in McCoy's 5a Medium Modified, ATCC Catalog No. 30-2007 containing 10% FCS and 400 μg/ml G418 (Geneticin) at 37° C. under an atmosphere of 5% CO2/95% air. Cellular enzyme assays were performed in DMEM/F12 medium containing 2.5% charcoal treated FCS and appropriate concentration of substrate (0.3-10 uM 11-Deoxycorticosterone, 11-Deoxycortisol or Corticosterone). For assaying enzymatic activity, cells were plated onto 96 well plates and incubated for 16 h. An aliquot of the supernatant is then transferred and analyzed for the concentration of the expected product (Aldosterone for CYP11B2; Cortisol for CYP11B1). The concentrations of these steroids can be determined using HTRF assays from CisBio analyzing either Aldosterone or Cortisol.
(§4) Inhibition of the release of produced steroids can be used as a measure of the respective enzyme inhibition by test compounds added during the cellular enzyme assay. The dose dependent inhibition of enzymatic activity by a compound is calculated by means of plotting added inhibitor concentrations (x-axes) vs. measured steroid/product level (y-axes). The inhibition is then calculated by fitting the following 4-parameter sigmoidal function (Morgan-Mercer-Flodin (MMF) model) to the raw data points using the least squares method:
(§5) [formula] wherein, A is the maximum y value, B is the EC50 factor determined using XLFit, C is the minimum y value and D is the slope value.
(§6) EC50 values for compounds claimed herein were tested with the G402-based assay system described. Cyp11B2 enzyme activity was tested in presence of 1 μM Deoxycorticosterone and variable amounts of inhibitors; Cyp11B1 enzyme activity was tested in presence of 1 μM Deoxycortisol and variable amounts of inhibitors.
(In general: In TR-FRET formats the signal depends on donor and acceptor labels being close together.)

The target of assay [1] is T1, CYP11B2 (Homo sapiens (Human), UniProt P19099). The assay can be described thus: G-402 cellular enzyme assay, human CYP11B2 (aldosterone release, HTRF). The assay is classed as cell-based. The following applies: G-402 cells expressing human CYP11B2; 1 μM Deoxycorticosterone.
From the text: as §1, §2, §3, §4, §5, §6

For assay [2] the following is noted: rat CKD model, cited from earlier work; for plasma aldosterone: FAD286 4 weeks of treatment, spironolactone 4 and 8 weeks; for angiotensin II and salt-stimulated PAI-1 mRNA expression: aorta and heart.
Assay [3] has as its target T1, CYP11B2. Particulars: patients with primary aldosteronism; oral; cited from earlier work.

T1 sequence (P19099 25-503): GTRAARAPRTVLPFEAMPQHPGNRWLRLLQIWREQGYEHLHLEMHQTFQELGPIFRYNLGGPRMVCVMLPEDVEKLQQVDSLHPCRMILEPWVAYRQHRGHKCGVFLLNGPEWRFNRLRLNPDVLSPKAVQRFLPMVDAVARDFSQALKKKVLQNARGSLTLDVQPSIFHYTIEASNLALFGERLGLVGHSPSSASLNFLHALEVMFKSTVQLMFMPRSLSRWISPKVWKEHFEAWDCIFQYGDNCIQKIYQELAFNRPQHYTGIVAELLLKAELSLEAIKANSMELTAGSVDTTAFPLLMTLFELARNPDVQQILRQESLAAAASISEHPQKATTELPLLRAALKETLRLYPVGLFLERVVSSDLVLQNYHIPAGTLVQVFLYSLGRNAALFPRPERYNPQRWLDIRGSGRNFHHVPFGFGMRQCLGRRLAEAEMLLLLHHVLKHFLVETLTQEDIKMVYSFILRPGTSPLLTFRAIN
human CYP11B1, sequence (P15538 25-503): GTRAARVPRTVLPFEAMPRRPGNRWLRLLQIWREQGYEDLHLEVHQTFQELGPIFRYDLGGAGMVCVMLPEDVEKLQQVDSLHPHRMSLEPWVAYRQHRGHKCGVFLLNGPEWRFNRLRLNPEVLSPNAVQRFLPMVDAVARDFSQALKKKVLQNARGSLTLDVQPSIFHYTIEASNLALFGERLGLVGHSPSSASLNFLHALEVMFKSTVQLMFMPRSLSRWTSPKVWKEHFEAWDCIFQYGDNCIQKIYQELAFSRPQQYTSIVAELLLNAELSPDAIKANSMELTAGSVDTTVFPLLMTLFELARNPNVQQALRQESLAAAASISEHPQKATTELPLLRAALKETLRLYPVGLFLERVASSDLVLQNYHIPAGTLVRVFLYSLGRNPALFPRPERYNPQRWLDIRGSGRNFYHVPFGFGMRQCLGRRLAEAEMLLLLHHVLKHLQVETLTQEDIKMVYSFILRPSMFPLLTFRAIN

Regarding `OC1(c2ccccc2)CCc2cncc(-c3ccc(C(F)(F)F)cc3F)c21` (single isomer, unassigned; (-)) [Example 10, (−)-4-[2-Fluoro-4-(trifluoromethyl)phenyl]-5-phenyl-6,7-dihydrocyclopenta[c]pyridin-5-ol], the EC50 on human CYP11B1 was 8.13 µM; at CYP11B2 [1] it was 0.063 µM.
Turning to `N#Cc1ccc([C@H]2CCCc3cncn32)cc1` [FAD286], in assay [2], the plasma aldosterone result is “reduced”; the “angiotensin II and salt-stimulated PAI-1 mRNA expression” value was “not FAD286 enhanced”.
`N#Cc1ccc([C@H]2CCc3cncn32)c(F)c1` [LCI699]: at CYP11B2 [3], the blood pressure entry is reported as “mildly decreased”, the circulating aldosterone levels entry was “significantly lower” and the hypokalemia entry is recorded as “corrected”.
Regarding `CC(=O)S[C@@H]1CC2=CC(=O)CC[C@]2(C)[C@H]2CC[C@@]3(C)[C@@H](CC[C@@]34CCC(=O)O4)[C@H]12` [spironolactone], in assay [2], the plasma aldosterone entry is reported as “increased”; the “angiotensin II and salt-stimulated PAI-1 mRNA expression” value was “enhanced”.
